{"source": "patent US4374284A", "about": "“Antiulcer, antiinflammatory, and antiallergic agent comprising as the main ingredient olean-12-ene-3β, 30-diol which is devoid of side effects of glycyrrhetinic acid and a new process for preparation of olean-12-ene-3β, 30-diol” (Minophagen Pharmaceutical Company, priority 1980, dated 1983)", "key": {"stress-induced ulcer": {"system": "stress-induced ulcer", "experiment": "mice experiments on stress-induced ulcer (restraint plus water immersion)", "format": "in vivo, male ddY mice", "details": "for inhibitory effect on stress-induced ulcer (in words): 200 mg/kg", "method": "(a) Mice Experiments on stress-induced ulcer Experimental procedures:\nMale ddY mice weighing about 20 g were made to fast for 18 hours. Water was given freely. Compounds to be tested were suspended in Tween 80 to prepare an aqueous suspension and administered orally. Immediately thereafter, the mice were subjected to restraint plus water immersion stress (25° C.) for 6 hours. Thereafter, the stomach was excised and fixed by formalin. The degree of ulcer was shown as a total of the length. The control group was given only the solvent."}, "[1]": {"target": "T1, Δ^4 -5α-reductase for aldosterone in rat liver (Rattus norvegicus, UniProt P24008)", "T1 construct": "The pellet was appropriately diluted with a solution of 0.25 M sucrose-1 mM EDTA to use as a 5α-reductase solution; from tissue; host or cells: rat liver, 105,000 g pellet", "T1 sequence (P24008 1-259)": "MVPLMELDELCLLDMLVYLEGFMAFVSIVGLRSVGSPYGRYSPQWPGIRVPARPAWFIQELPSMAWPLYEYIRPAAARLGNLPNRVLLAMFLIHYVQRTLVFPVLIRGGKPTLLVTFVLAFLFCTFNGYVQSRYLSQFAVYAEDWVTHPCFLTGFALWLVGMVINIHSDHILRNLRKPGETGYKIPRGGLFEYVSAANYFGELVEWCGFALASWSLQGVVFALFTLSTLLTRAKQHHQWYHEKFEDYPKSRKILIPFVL", "experiment": "inhibitory action on Δ^4-5α-reductase for aldosterone", "format": "biochemical", "details": "for inhibition at 0.173 µM: pH 7.2, read-out: 5α-reductase (inhibition %)", "method": "(§1) In vitro experimental results regarding effects of glycyrrhetinic acid (II) and its modified compounds (III), (IV), and (I) on Δ^4 -5α and 5β-reductase for aldosterone in rat liver will be shown below.\n(§2) Assay for activity of Δ^4 -5α and 5β-reductase\n(§3) (1) Preparation of enzyme solutions\n(§4) Rat livers were perfused with saline and excised to prepare a 25% or 50% homogenate with a solution of 0.25 M sucrose and 1 mM EDTA. The homogenate was spun at 10,000 g for 20 minutes to separate supernatant, which was centrifuged again at 105,000 g to obtain Δ^4 -5β-reductase as the supernatant. The pellet was appropriately diluted with a solution of 0.25 M sucrose-1 mM EDTA to use as a 5α-reductase solution.\n(§5) (2) Conditions for incubation and assay\n(§6) 1 Aldosterone . . . 0.173 μM/0.05 ml ethanol solution\n(§7) 2 Glycyrrhetinic acid or its modified compounds . . . 0.173 μM/0.05 ml ethanol solution Control . . . 0.05 ml ethanol solution\n(§8) 5α-reductase solution 0.1 ml\n(§9) 5β-reductase solution 0.1 ml or 0.2 ml\n(§10) 5 Phosphate buffer (0.1 M, pH 7.2) 1 ml\n(§11) The components 1 , 2 , 3 , 4 , 5 , and 6 mentioned above were mixed to bring the total volume up to 2.5 ml. The mixture was incubated at 37° C. for 20 minutes. Before the incubation, however, 1 ml aliquot was removed from 2.5 ml of the mixture mentioned above and extracted with 5 ml of methylene dichloride. After the incubation, the remaining 1.5 ml was extracted with 5 ml of methylene dichloride. The optical density of the two methylene dichloride solutions prepared before and after the incubation was measured by a spectrophotometer (Hitachi) at 240 mμ. Inhibition % of Δ^4 -5α and 5β-reductase activity was calculated from the difference in the optical density."}, "aspirin-induced ulcer [2]": {"system": "aspirin-induced ulcer", "experiment": "rat experiment on aspirin-induced ulcer, oral (experiment b)", "format": "in vivo, male Wister rats", "details": "200 mg/kg p.o., after 5 hours; control 0", "method": "(b) Experimental procedures:\nMale Wister rats weighing 120-140 g were made to fast for 24 hours, and compounds to be tested were administered orally. After 5 hours, the rats were killed by a blow. The stomach was excised and observed for the presence of ulcer.\nThe size of ulcer was measured by ulcer index (ulcer length×width mm^2)."}, "[3]": {"system": "writhing induced by acetic acid", "experiment": "effect on writhing induced by acetic acid (analgesic action)", "format": "in vivo, male ddY mice", "details": "for number of writhing: 200 mg/kg p.o., counted for 10 minutes, control 24.9 ± 1.6, ** p < 0.01", "method": "(b) Effect on writhing induced by acetic acid (analgesic action)\nThe present compound olean-12-ene-3β, 30-diol (I) was administered orally to male ddY mice weighing 25-27 g. After 30 minutes, saline containing 0.7% acetic acid was administered intraperitoneally. The number of writhings of the mice was counted for 10 minutes from, 10 min. of the administration. Aspirin was used as the reference."}, "[4]": {"system": "rat paw edema induced with carrageenin", "experiment": "test on rat paw edema induced with carrageenin (antiinflammatory)", "format": "in vivo, male Wister rats", "details": "200 mg/kg p.o., after three hours", "method": "(a) Test on rat paw induced with carrageenin\nTo the plantar side of the hind paw of male Wister rats was administered subcutaneously 0.05 ml/rat of 10% saline solution of carrageenin. Edema after three hours was measured by the volume method and the rate of inhibition was assayed. Compounds were administered orally 30 minutes before administration of carrageenin. [formula]"}, "[5]": {"details": "higher dosages for a long period, clinical; cited from earlier work"}, "[6]": {"system": "ulcers induced by acetic acid", "experiment": "experiments with rats on ulcers induced by acetic acid (chronic gastric ulcers)", "format": "in vivo", "design": "ulcer value (major axis × minor axis): unit not given here", "details": "for ulcer value (major axis × minor axis): p.o., 14 days", "method": "(c) Experiments with rats on ulcers induced by acetic acid\nChronic gastric ulcers were induced by penetrating 100% acetic acid serosally into gastric wall for 60 sec. using a small cup (6 mm in diameter, 5 mm in height).\nFrom the next day, compounds to be tested were administered orally twice a day (morning and evening) for 14 days. Autopsies were carried out 15 days after the administrations."}, "[7]": {"system": "PCA reaction (type I allergy)", "experiment": "PCA test (type I allergy)", "format": "in vivo, male Wister rats", "details": "serum 1/64, 200 mg/kg intraperitoneally; control 16.4 ± 2.8", "method": "(a) PCA--Test (type I allergy)\nMale Wister rats weighing […] were shaved at the abdomen. After 24 hours, 0.05 ml of serum diluted with saline (Blood samples were diluted to 1/32 and 1/64; The blood samples were collected from rats 3 weeks after administration of pertussis vaccine and egg albumin.) was injected intradermally at the abdomen. After 48 hours, compounds to be tested were administered intraperitoneally. Two hours thereafter, 0.5 ml./100 g of a solution of antigen and pigment (a solution of 0.4% egg albumin and 0.5% Pontamine sky blue) was administered. After 45 minutes, the rats were decapitated and bled, and the diameter of the pigment-leaking site under the skin was measured to obtain the area."}, "aspirin-induced ulcer [8]": {"system": "aspirin-induced ulcer", "experiment": "rat experiment on aspirin-induced ulcer, pylorus ligated (experiment a)", "format": "in vivo, male Wister rats", "details": "rat, in vivo", "method": "(b) Rat experiment on aspirin-induced ulcer\n(a) Experimental procedures:\nMale Wister rats weighing about 220 g were made to fast for 24 hours. Water was given freely. The rats were laparotomized under anesthesia with ether. The stomach was drawn out and ligated at the pylorus. Immediately thereafter, 1% CMC suspension of aspirin was administered orally in a dose of 100 mg/kg/5 ml. Aqueous suspensions of compounds to be tested were prepared in the same manner as in the experiment (a) and administered intraduodenally at the same time. The wound was closed and the rats were set free. After 7 hours, the stomach was excised and ulcer was measured in the same manner as in the experiment (a)."}, "[9]": {"target": "T2, Δ^4 -5β-reductase for aldosterone in rat liver (Rattus norvegicus, UniProt P31210)", "T2 construct": "centrifuged again at 105,000 g to obtain Δ^4 -5β-reductase as the supernatant; from tissue; host or cells: rat liver, 105,000 g supernatant (cytosol)", "T2 sequence (P31210 1-326)": "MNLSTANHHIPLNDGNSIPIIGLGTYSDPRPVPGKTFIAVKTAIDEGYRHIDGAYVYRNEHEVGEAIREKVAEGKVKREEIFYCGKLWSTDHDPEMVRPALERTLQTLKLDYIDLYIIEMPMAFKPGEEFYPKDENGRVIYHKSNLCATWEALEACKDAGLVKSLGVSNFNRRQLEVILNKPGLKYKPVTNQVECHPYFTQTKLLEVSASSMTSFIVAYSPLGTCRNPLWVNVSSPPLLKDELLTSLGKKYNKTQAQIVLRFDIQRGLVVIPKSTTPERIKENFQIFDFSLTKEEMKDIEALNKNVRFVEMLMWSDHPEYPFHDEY", "experiment": "inhibitory action on Δ^4-5β-reductase for aldosterone", "format": "biochemical", "method": "as §1, §2, §3, §4, §5, §6, §7, §8, §9, §10, §11"}, "[10]": {"details": "summary in words, liver reductase"}}}
{"smiles": "CC1(C)[C@@H](O)CC[C@]2(C)[C@H]3CC=C4[C@@H]5C[C@@](C)(C(=O)O)CC[C@]5(C)CC[C@@]4(C)[C@]3(C)CC[C@@H]12", "note": "[III, olean-12-ene-3β-ol-30-oic acid]", "values": [{"measurement": "inhibitory effect on stress-induced ulcer (in words)", "setting": "stress-induced ulcer", "result": "showed the effect"}, {"measurement": "ulcer index", "setting": "stress-induced ulcer; 200 mg/kg p.o., 5th experiment, control 4.13 ± 0.53", "result": "3.38 ± 0.79"}, {"measurement": "inhibition at 0.173 µM", "setting": "[1]", "result": "-0.5 ± 6.6", "unit": "%"}]}
{"smiles": "CC(=O)Oc1ccccc1C(=O)O", "note": "[aspirin, reference compound]", "values": [{"measurement": "ulcer index (ulcer length×width)", "setting": "aspirin-induced ulcer [2]", "result": "7.11 ± 1.1", "unit": "mm^2"}, {"measurement": "number of writhing", "setting": "[3]", "result": 0}, {"measurement": "edema %", "setting": "[4]; control 71 ± 6", "result": "17 ± 3", "unit": "%"}, {"measurement": "inhibition at 200 mg/kg", "setting": "[4]; Rattus norvegicus, po, 3 h, edema", "result": 76.1, "unit": "%"}]}
{"smiles": "CC1(C)[C@@H](O[C@H]2O[C@H](C(=O)O)[C@@H](O)[C@H](O)[C@H]2O[C@@H]2O[C@H](C(=O)O)[C@@H](O)[C@H](O)[C@H]2O)CC[C@]2(C)[C@H]3C(=O)C=C4[C@@H]5C[C@@](C)(C(=O)O)CC[C@]5(C)CC[C@@]4(C)[C@]3(C)CC[C@@H]12", "note": "[Glycyrrhizin]", "values": [{"measurement": "side effect (in words)", "setting": "[5]", "result": "pseudoaldosteronism such as hypertension, hypopotassemia, and edema"}]}
{"smiles": "CC1(C)[C@@H](O)CC[C@]2(C)[C@H]3C(=O)C=C4[C@@H]5C[C@@](C)(C(=O)O)CC[C@]5(C)CC[C@@]4(C)[C@]3(C)CC[C@@H]12", "note": "[II, olean-12-ene-11-oxo-3β-ol-30-oic acid, reference compound]", "values": [{"measurement": "inhibitory effect on stress-induced ulcer (in words)", "setting": "stress-induced ulcer", "result": "showed the inhibitory effect"}, {"measurement": "ulcer value (major axis × minor axis)", "setting": "[6]; Experiment 1, 200 mg/kg (half dose twice/day), control 12.0 ± 2.3", "result": "10.4 ± 2.7"}, {"measurement": "ulcer value (major axis × minor axis)", "setting": "[6]; Experiment 1, 400 mg/kg (half dose twice/day), control 12.0 ± 2.3", "result": "8.6 ± 2.2"}, {"measurement": "ulcer value (major axis × minor axis)", "setting": "[6]; Experiment 2, 200 mg/kg (half dose twice/day), control 8.9 ± 1.7", "result": "11.5 ± 2.2"}, {"measurement": "ulcer value (major axis × minor axis)", "setting": "[6]; Experiment 2, 400 mg/kg (half dose twice/day), control 8.9 ± 1.7", "result": "5.8 ± 1.0"}, {"measurement": "ulcer value (major axis × minor axis)", "setting": "[6]; Total, 200 mg/kg (half dose twice/day), control 10.4 ± 1.4", "result": "10.9 ± 1.7"}, {"measurement": "ulcer value (major axis × minor axis)", "setting": "[6]; Total, 400 mg/kg (half dose twice/day), control 10.4 ± 1.4, * p < 0.05", "result": "7.1 ± 1.2"}, {"measurement": "inhibitory effect on acetic acid ulcer (in words)", "setting": "[6]; dose of 400 mg", "result": "clearly showed inhibitory effects"}, {"measurement": "number of writhing", "setting": "[3]", "result": "15.2 ± 3.6"}, {"measurement": "effect on writhing (in words)", "setting": "[3]; increasing doses", "result": "significantly decrease the number of writhing"}, {"measurement": "effect upon Δ^4 -5α-5β-reductase (in words), 5α", "setting": "[1]; [10]", "result": "strongly inhibited the activity of the reductase"}, {"measurement": "area", "setting": "[7]", "result": "7.7 ± 6.5", "unit": "mm^2"}, {"measurement": "inhibitory effect on aspirin-induced ulcer, experiment (a) (in words)", "setting": "aspirin-induced ulcer [8]", "result": "scarcely showed the effect"}, {"measurement": "inhibition at 0.173 µM (stock)", "setting": "[9]; equimolar to aldosterone (0.173 μM), 37° C., 20 minutes, pH 7.2", "result": "87.7 ± 2.2", "unit": "%"}, {"measurement": "effect upon Δ^4 -5α-5β-reductase (in words), 5β", "setting": "[9]; [10]", "result": "strongly inhibited the activity of the reductase"}]}
{"smiles": "CC1(C)[C@@H](O)CC[C@]2(C)[C@H]3C(=O)C=C4[C@@H]5C[C@@](C)(CO)CC[C@]5(C)CC[C@@]4(C)[C@]3(C)CC[C@@H]12", "note": "[IV, olean12-ene-11-oxo-3β, 30diol]", "values": [{"measurement": "inhibition at 0.173 µM", "setting": "[1]", "result": "26.5 ± 5.6", "unit": "%"}]}
